Experimental data published in the OligoGym collection.
HELM strings list units from the 5' end as sugar, base in round brackets, then linkage (d deoxyribose, r ribose, m 2'-O-methyl, p phosphodiester). Strings are as the collection lists them; they lack the last nucleoside at the 3' end of the tested compound. [moe] = 2'-O-(2-methoxyethyl) (MOE); [sp] = phosphorothioate linkage; [m5C] = 5-methylcytosine

Biological target: APP
Assay: mouse, dose not given
Settings: ASO

RNA1{[moe]([m5C])[sp].[moe]([m5C])p.[moe](T)p.[moe]([m5C])p.[moe](T)[sp].d(G)[sp].d([m5C])[sp].d(T)[sp].d(A)[sp].d([m5C])[sp].d(T)[sp].d(T)[sp].d([m5C])[sp].d(T)[sp].d(A)[sp].[moe]([m5C])p.[moe](T)p.[moe](A)[sp].[moe]([m5C])}$$$$ (last 3' nucleoside missing)
3 h FOB score: 1 score 0-7

RNA1{[moe]([m5C])[sp].[moe]([m5C])p.[moe]([m5C])p.[moe](A)p.[moe]([m5C])[sp].d(T)[sp].d(T)[sp].d([m5C])[sp].d([m5C])[sp].d([m5C])[sp].d(A)[sp].d(T)[sp].d(T)[sp].d([m5C])[sp].d(T)[sp].[moe](G)p.[moe](G)p.[moe](A)[sp].[moe]([m5C])}$$$$ (last 3' nucleoside missing)
3 h FOB score: 0.5 score 0-7
